# Experiments:
# [1] = CCK8 cytotoxicity assay in THP-1 cells; type: cell-based; conditions: human, CCK-8
# Experimental: 4 day cytotoxicity assay using THP-1 cells: THP-1 cells grown in suspension were counted and diluted to 8×10^4 cells/ml in RPMI-1640 media supplemented with 10% fetal bovine serum (FBS) and 1% penicillin/streptomycin. 25 ul of the THP-1 containing media consisting of 2000 cells were dispensed in 384-well tissue culture plate and pre-incubated at room temperature for 30 minutes, followed by 37° C., 5% CO2 overnight in the humidified incubator. On the next day, serial-diluted compound plates were prepared and 125 nl of compounds at various concentrations were then dispensed into the tissue culture well (200× dilution). The plates were then transferred to 37° C., 5% CO2 humidified incubator for additional 96 hours. Cytotoxicity was measured by CCK-8 assay. Briefly, CCK-8 was thawed on bench top and diluted 2.5× with the growth media. 35 ul of the pre-diluted CCK-8 was then introduced into each well and the plates were then further incubated in 37° C., 5% CO2 humidified incubator for 3 hours. The absorbance was read by Envision at 450 nm. Dose response curves were calculated as in the previous section (n=2). The CC50 is estimated as the concentration of the compound which will inhibit 50% of the signal. A positive control (puromycin) was used to ensure the quality of the data.
# [2] = Nucleoside triphosphate concentrations in dog PBMC after oral administration; type: in vivo; conditions: oral administration of 3 mg/Kg
# Experimental: Male beagle dogs were administered a single intravenous (0.5 mg/kg) or oral dose (3-15 mg/kg) of a representative compound of the present invention. Blood samples (3.5 mL) were collected at 0, 0.0833 (IV only), 0.25, 0.5, 1, 2, 4, 6, 8, 24, 48, 72 hours post-dose through the jugular vein. K2EDTA was used as the anticoagulant. Plasma was prepared from an aliquot of 0.5 mL of blood and assayed for the compound and metabolites by tandem mass spectrometric method (LC/MS-MS). PBMC was isolated from 3 mL of blood and assayed for nucleoside triphosphate (NTP) levels by LC/MS-MS.
# Three mL of blood was collected from the dog into EDTA vacutainers and mixed on a rocker & immediately placed on ice. The blood was transferred to a 15 mL falcon tube. Three mL PBS (w/o Ca/Mg) and 3 mL 6% dextran (in PBS) were added and was left for 30 minutes on ice to allow the red blood cells to sediment. Blood supernatant (5-7 mL) was layered on top of 5 mL of Mammalian-Lympholyte in 15-mL conical blue-top tube, centrifuged for 20 minutes at 1500 g at 4° C.
# After centrifugation, the well-defined lymphocyte (PBMC) layer at the interface was carefully removed to a new 15-mL centrifuge tube and was diluted to a total volume of 15 mL to reduce the density of the solution. The content was centrifuged at 800 g for 10 minutes at 4° C. to pellet the PBMC. The pellet was re-suspended in 1 mL of PBS and further diluted to 10 mL, followed by centrifugation at 800 g for 10 minutes at 4° C. to pellet the PBMC. The pellet was re-suspended in 1 mL PBS and followed by 5 mL ice cold de-ionized water, mixed for 30 seconds by inverting to lyse the remaining red blood cells. Five ml of ice cold 2×PBS was added to bring the mixture back to isotonicity. The mixture was centrifuged at 800 g for 10 minutes at 4° C. to pellet the cells and discard the supernatant. The resulting pellet was re-suspended in 1 mL PBS. An aliquot of 10 μL of the pellet suspension was diluted into 90 μL of PBS for cell count. An aliquot of each sample was transferred to a fresh Eppendorf tubes and centrifuged at 5000 rpm for 5 min at 4° C. The pellets were ready for bioanalysis.
# Concentrations of nucleoside triphosphate in PBMC were determined by tandem mass spectrometric method (LC/MS/MS). Chromatography was conducted on ACQUITY UPLC HSS T3 Column, 100 Å, 1.8 μm, 2.1 mm×50 mm using a mobile phase gradient consisting of (A) 2 mM ammonium dihydrogen-phosphate and 5 mM Hexylamine in (B) Acetonitrile, 8% B to 22% B in 3.2 minutes at a flow rate of 0.3 mL/minute. The mass spectrometer was operated in the Multiple Reaction Monitoring (MRM) using negative ionization mode. An internal standard, Carbosynth was used in the construction of standard calibration curves in blank PBMC obtained commercially. The nucleoside triphosphate was monitored at m/z 538.1>158.9 and the internal standard was monitored at 536.1>158.9. The dynamic range was 50, 100, 300, 1000, 3000, 10000, 30000 fmole/3×10^6 PBMC.
Structure (SMILES),CC50 at 96 h [1],NTP AUC0-24h [2],NTP Cmax [2]
"CCOC(=O)[C@H](C)N[P@@]1(=O)OC[C@H]2O[C@@H](n3cnc4c(OCC)nc(N)nc43)[C@](C)(F)[C@@H]2O1 [Example 1, (S)-ethyl 2-(((2R,4aR,6R,7R,7aR)-6-(2-amino-6-ethoxy-9H-purin-9-yl)-7-fluoro-7-methyl-2-oxidotetrahydro-4H-furo[3,2-d][1,3,2]dioxaphosphinin-2-yl)amino)propanoate]",> 50 µM,36900 ± 11358 fmol/3 million cells,2331 ± 1181 fmol/3 million cells
"CCOc1nc(N)nc2c1ncn2[C@@H]1O[C@@H]2CO[P@](=O)(N[C@@H](C)C(=O)OC)O[C@H]2[C@@]1(C)F [Example 3, (S)-methyl 2-(((2R,4aR,6R,7R,7aR)-6-(2-amino-6-ethoxy-9H-purin-9-yl)-7-fluoro-7-methyl-2-oxidotetrahydro-4H-furo[3,2-d][1,3,2]dioxaphosphinin-2-yl)amino)propanoate]",> 50 µM,10457 ± 2983 fmol/3 million cells,662 ± 228 fmol/3 million cells
"CCOc1nc(N)nc2c1ncn2[C@@H]1O[C@@H]2CO[P@@](=O)(N[C@H](C)C(=O)OC(C)C)O[C@H]2[C@@]1(C)F [Example 6, (R)-isopropyl 2-(((2S,4aR,6R,7R,7aR)-6-(2-amino-6-ethoxy-9H-purin-9-yl)-7-fluoro-7-methyl-2-oxidotetrahydro-4H-furo[3,2-d][1,3,2]dioxaphosphinin-2-yl)amino)propanoate]",> 50 µM,11049 ± 2190 fmol/3 million cells,777 ± 45.2 fmol/3 million cells
"CCOc1nc(N)nc2c1ncn2[C@@H]1O[C@@H]2CO[P@@](=O)(N[C@@H](C)C(=O)OC(C)C)O[C@H]2[C@@]1(C)F [Example 2, (S)-isopropyl 2-(((2S,4aR,6R,7R,7aR)-6-(2-amino-6-ethoxy-9H-purin-9-yl)-7-fluoro-7-methyl-2-oxidotetrahydro-4H-furo[3,2-d][1,3,2]dioxaphosphinin-2-yl)amino)propanoate]",34 µM,7218 ± 5117 fmol/3 million cells,618 ± 308 fmol/3 million cells
